Reference: patent publication US8323708B2, “Poultry meat and eggs comprising beneficial fatty acids” (Monsanto Technology LLC, priority 2009, dated 2012)

Columns and labels:
[1] = 42 day broiler study: fatty acid composition of breast meat; type: in vivo, broiler chickens (Ross x Ross 308)
Protocol: (§1) A 42 day study was conducted to determine whether broiler chickens fed a diet containing SDA could produce meat with elevated levels of omega-3 fatty acids as compared to chickens fed diets containing DHA and fish oil.
(§2) Fifty six pens of 25 male birds (Ross×Ross 308) per pen were used. Day old birds were obtained and immediately placed in floor pens containing (used) pine wood shavings, hanging tube feeders and nipple-waterers or plassons. Eight pens were each fed one of seven treatments for 42 days. The experiment was divided into four growth phases (0-7 days, 7-21 days, 21-35 days, and 35-42 days). The experimental diets were crumbled for the first two phases (0-21 days) and pelleted thereafter.
(§3) Diets consisted of 93% base mix (Table 10) plus 7% Test Oil Mix (Table 11). The diets supplied 3008, 3083, 3183 and 3208 kcal/kg of metabolizable energy for the pre-starter, starter, grower and finisher phases, respectively.
(§4) A randomized block design was used. Treatments were randomly assigned to pens such that each of the seven treatments was replicated 8 times (8 pens with each pen containing 25 birds).
(§5) On day 42, following a 10-hour period of feed withdrawal, 8 birds per pen (64 birds/treatment; 7 treatments; 448 birds total) were randomly selected and processed using commercial processing procedures. Carcasses were cut-up and de-boned at 4 hours postmortem. Carcass and parts yields were calculated and meat samples (breast and thigh) were collected for meat quality, fatty acid analysis, and sensory evaluation.

[2] = Laying hen study: long chain fatty acid composition of eggs; type: in vivo, laying hens; conditions: total egg
Protocol: A study was conducted to determine whether laying hens fed a diet enriched in stearidonic acid could produce eggs with elevated levels of beneficial omega-3 fatty acids including EPA and DHA. Mature laying hens […] were randomly allotted to seven dietary treatments (16 hens/treatment) and were fed diets containing the following levels of n-3 fatty acids as described in Table 28 for four weeks. Sixteen birds were given each treatment. Four birds were randomly selected out of the 16 per treatment to obtain eggs during week 4 for fatty acid composition. […] The laying hens had ad libitum access to feed and water. The composition of the diets (Table 29) and premixes (Table 30) are provided below. To help prevent oxidation of the fatty acids, 0.05% ethoxyquin (Rendox) was added to each premix. Premixes were manufactured within 3 days of arrival of ethyl esters. To limit the oxidation associated with storage, diets were manufactured once and stored in a refrigerated cooler at 4° C. during the duration of the study. Eggs collected during […] (days 22-28) were maintained under refrigerated conditions until all eggs for that week were collected. Eggs were sorted by hen and treatment. Two eggs per hen from 4 hens per treatment were taken. The two eggs were weighed individually, cracked and the shell weighed. The difference between fresh egg and shell represented liquid egg weight and served as the basis for further calculations. The liquid fraction from each of the two eggs per hen were combined in a sample cup and homogenized. Samples were analyzed for fatty acids by gas chromatography.

[3] = 42 day broiler study: fatty acid composition of thigh meat and attached skin; type: in vivo, broiler chickens (Ross x Ross 308)
Protocol: as §1, §2, §3, §4, §5

[4] = 21 day broiler study: long chain fatty acid composition of skinless breast meat; type: in vivo, broiler chickens; conditions: day 21-42
Protocol: (§6) A 21 day study was conducted to determine whether broiler chickens fed a diet containing SDA could produce meat with elevated levels of omega-3 fatty acids including EPA and DHA.
(§7) Fifty pens of four birds per pen were used. There were 25 pens of males and 25 pens of females. Five pens of males and five pens of females were each fed one of five treatment diets from day 21 to 42 days of age. Prior to day 21 all birds were fed a standard 22% protein starter diet formulated to meet NRC (1994) nutrient requirements (shown in Table 16 as “S” diet). The feed prepared was feed as a crumble.
(§8) The test diets were prepared and fed in mash form. All broilers had ad libitum access to feed and water for the duration of the 21 day study. The composition of the diets (Table 4) and premixes (Table 5) are provided below.
(§9) To help prevent oxidation of the fatty acids, 0.05% ethoxyquin (Rendox) was added to each premix. Premixes were manufactured within 3 days of arrival of ethyl esters. To limit oxidation associated with storage, diets were manufactured once and stored in a refrigerated cooler at 4° C. during the duration of the study.
(§10) For male pens only, four out of the five pens were randomly selected. Two birds from each of these pens were randomly selected (eights birds per treatment). The right and left thigh and right and left breast from these 40 birds were bagged and labeled and frozen. The right breast and thigh samples were analyzed for shelf life stability and the left skinless breast and left boneless, skinless thigh from these same birds were analyzed for fatty acid composition.

[5] = 21 day broiler study: long chain fatty acid composition of thigh meat; type: in vivo, broiler chickens; conditions: day 21-42; for ALA (C18:3n-3) / DHA (C22:6n-3) / DPA (C22:5 n-3) / EPA (C20:5n-3) / Omega 6/Omega 3 ratio / SDA (C18:4n-3) / Total omega 3's: boneless skinless thigh meat
Protocol: as §6, §7, §8, §9, §10

[6] = 0.27% in feed (as ethyl esters), day 0-42
[7] = thigh meat and attached skin, 0.27% in feed (as ethyl esters), day 0-42

For `CC/C=C\C/C=C\C/C=C\C/C=C\C/C=C\C/C=C\CCC(=O)OCC` [DHA Ethyl Ester], the “ARA C20:4n-6” value [1, 6] was 3.01 % of fatty acids, the “C16:0” value [1, 6] was 21.82 % of fatty acids and the “C16:1” value [1, 6] was 3.09 % of fatty acids. The “C18:0” value [1, 6] was 8.76 % of fatty acids, the “C18:1” value [1, 6] was 30.41 % of fatty acids and the “C18:2” value [1, 6] was 22.94 % of fatty acids. The “C22:4n-6” value [1, 6] was 0.53 % of fatty acids, the “DHA (C22:6n-3)” value [1, 6] was 2.78 % of fatty acids and the “DPA (C22:5 n-3)” value [1, 6] was 0.48 % of fatty acids. The “EPA (C20:5n-3)” value [1, 6] was 0.16 % of fatty acids, the “SDA (C18:4n-3)” value [1, 6] was 0.59 % of fatty acids and the “Total C18:3” value [1, 6] was 0.66 % of fatty acids. The “Total SDA, EPA, DPA and DHA concentrations” value ([1]; % of fatty acids, 0.27% in feed) was 4.00%, the “ALA (C18:3n-3)” value ([2]; 0.163% of diet) was 40 mg/100 g and the “DHA (C22:6n-3)” value ([2]; 0.163% of diet) was 177.5 mg/100 g. For the same compound, the “DPA (C22:5 n-3)” value ([2]; 0.163% of diet) was 10 mg/100 g, the “Omega 6/Omega 3 ratio” value ([2]; 0.163% of diet) was 5.7 and the “Total omega 3's” value ([2]; 0.163% of diet) was 227.5 mg/100 g. For the same compound, the “ALA (C18:3n-3)” value ([2]; 0.326% of diet) was 40 mg/100 g, the “DHA (C22:6n-3)” value ([2]; 0.326% of diet) was 247.5 mg/100 g and the “DPA (C22:5 n-3)” value ([2]; 0.326% of diet) was 10 mg/100 g. For the same compound, the “EPA (C20:5n-3)” value ([2]; 0.326% of diet) was 10 mg/100 g, the “Omega 6/Omega 3 ratio” value ([2]; 0.326% of diet) was 3.8 and the “Total omega 3's” value ([2]; 0.326% of diet) was 307.5 mg/100 g. For the same compound, the “ARA C20:4n-6” value [3, 7] was 0.81 % of fatty acids, the “C16:0” value [3, 7] was 21.71 % of fatty acids and the “C16:1” value [3, 7] was 4.48 % of fatty acids. For the same compound, the “C18:0” value [3, 7] was 6.31 % of fatty acids, the “C18:1” value [3, 7] was 35.94 % of fatty acids and the “C18:2” value [3, 7] was 25.99 % of fatty acids. The “C20:4n-3” value [3, 7] was 0.03 % of fatty acids, the “C22:4n-6” value [3, 7] was 0.16 % of fatty acids and the “DHA (C22:6n-3)” value [3, 7] was 0.73 % of fatty acids. For the same compound, the “DPA (C22:5 n-3)” value [3, 7] was 0.14 % of fatty acids, the “EPA (C20:5n-3)” value [3, 7] was 0.11 % of fatty acids and the “SDA (C18:4n-3)” value [3, 7] was 0.24 % of fatty acids. For the same compound, the “Total C18:3” value [3, 7] was 1.03 % of fatty acids, the “Total SDA, EPA, DPA and DHA concentrations” value ([3]; thigh meat, 0.27% in feed) was 1.2% and the “ALA (C18:3n-3)” value ([4]; ethyl ester 0.163% of diet) was 10 mg/100 g. For the same compound, the “DHA (C22:6n-3)” value ([4]; ethyl ester 0.163% of diet) was 55.0 mg/100 g, the “DPA (C22:5 n-3)” value ([4]; ethyl ester 0.163% of diet) was 10 mg/100 g and the “EPA (C20:5n-3)” value ([4]; ethyl ester 0.163% of diet) was 10 mg/100 g. The “Omega 6/Omega 3 ratio” value ([4]; ethyl ester 0.163% of diet) was 2.9, the “Total omega 3's” value ([4]; ethyl ester 0.163% of diet) was 85.0 mg/100 g and the “ALA (C18:3n-3)” value ([4]; ethyl ester 0.326% of diet) was 10 mg/100 g. For the same compound, the “DHA (C22:6n-3)” value ([4]; ethyl ester 0.326% of diet) was 80 mg/100 g, the “DPA (C22:5 n-3)” value ([4]; ethyl ester 0.326% of diet) was 10 mg/100 g and the “EPA (C20:5n-3)” value ([4]; ethyl ester 0.326% of diet) was 10 mg/100 g. The “Omega 6/Omega 3 ratio” value ([4]; ethyl ester 0.326% of diet) was 1.9, the “Total omega 3's” value ([4]; ethyl ester 0.326% of diet) was 110 mg/100 g and the “ALA (C18:3n-3)” value ([5]; ethyl ester 0.163% of diet) was 70 mg/100 g. The “DHA (C22:6n-3)” value ([5]; ethyl ester 0.163% of diet) was 67.5 mg/100 g, the “DPA (C22:5 n-3)” value ([5]; ethyl ester 0.163% of diet) was 15 mg/100 g and the “EPA (C20:5n-3)” value ([5]; ethyl ester 0.163% of diet) was 10 mg/100 g. The “Omega 6/Omega 3 ratio” value ([5]; ethyl ester 0.163% of diet) was 8.4, the “SDA (C18:4n-3)” value ([5]; ethyl ester 0.163% of diet) was 10 mg/100 g and the “Total omega 3's” value ([5]; ethyl ester 0.163% of diet) was 172.5 mg/100 g. For the same compound, the “ALA (C18:3n-3)” value ([5]; ethyl ester 0.326% of diet) was 75 mg/100 g, the “DHA (C22:6n-3)” value ([5]; ethyl ester 0.326% of diet) was 125 mg/100 g and the “DPA (C22:5 n-3)” value ([5]; ethyl ester 0.326% of diet) was 20 mg/100 g. For the same compound, the “EPA (C20:5n-3)” value ([5]; ethyl ester 0.326% of diet) was 27.5 mg/100 g, the “Omega 6/Omega 3 ratio” value ([5]; ethyl ester 0.326% of diet) was 5.7 and the “SDA (C18:4n-3)” value ([5]; ethyl ester 0.326% of diet) was 10 mg/100 g. The “Total omega 3's” value ([5]; ethyl ester 0.326% of diet) was 257.5 mg/100 g and the “total omega 3 fatty acids in thigh meat relative to breast meat” value ([5]; supplemented birds) was 2 times.
With `CC/C=C\C/C=C\C/C=C\CCCCCCCC(=O)OCC` [ALA Ethyl Ester] the “ALA (C18:3n-3)” value ([2]; 0.932% of diet) was 267.5 mg/100 g, the “DHA (C22:6n-3)” value ([2]; 0.932% of diet) was 132.5 mg/100 g and the “DPA (C22:5 n-3)” value ([2]; 0.932% of diet) was 22.5 mg/100 g. For the same compound, the “EPA (C20:5n-3)” value ([2]; 0.932% of diet) was 7.5 mg/100 g, the “Omega 6/Omega 3 ratio” value ([2]; 0.932% of diet) was 2.9 and the “Total omega 3's” value ([2]; 0.932% of diet) was 430 mg/100 g. The “ALA (C18:3n-3)” value ([2]; 1.864% of diet) was 622.5 mg/100 g, the “DHA (C22:6n-3)” value ([2]; 1.864% of diet) was 155 mg/100 g and the “DPA (C22:5 n-3)” value ([2]; 1.864% of diet) was 32.5 mg/100 g. The “EPA (C20:5n-3)” value ([2]; 1.864% of diet) was 12.5 mg/100 g, the “Omega 6/Omega 3 ratio” value ([2]; 1.864% of diet) was 1.5 and the “SDA (C18:4n-3)” value ([2]; 1.864% of diet) was 2.5 mg/100 g. For the same compound, the “Total omega 3's” value ([2]; 1.864% of diet) was 825 mg/100 g.
